Results taken from patent US6649614B2, “Use of a NK-1 receptor antagonist and an antidepressant and/or an anti-anxiety agent for treatment of depression or anxiety” (Merck Sharp & Dohme Ltd., priority 1996, dated 2003).

What was measured:
[1] = tested on: gerbils; assay: Gerbil foot-tapping (CNS penetration) assay; type: in vivo, Mongolian gerbil (Meriones unguiculatus); details: for gerbil foot-tapping (5 mins.) ID50 / gerbil foot-tapping (24 hrs.) ID50: i.v.; for gerbil foot-tapping (5 mins.) ID50: 5 mins. before central NK-1 agonist challenge; for gerbil foot-tapping (24 hrs.) ID50: 24 hrs. before central NK-1 agonist challenge
Text: ASSAY 3: Gerbil Foot-tapping (CNS Penetration) Assay
CNS-penetrant NK-1 receptor antagonists for use in the present invention can be identified by their ability to inhibit foot tapping in gerbils induced by anxiogenic agents (such as pentagastrin) or central infusion of NK-1 receptor agonists such as GR73632, or caused by aversive stimulation such as foot shock or single housing, based on the method of Rupniak & Williams, Eur. J. Pharmacol., 1994, 265, 179.
Male or female Mongolian gerbils (35-70 g) are anaesthetised by inhalation of an isoflurane/oxygen mixture to permit exposure of the jugular vein in order to permit administration of test compounds or vehicle in an injection volume of approximately 5 ml/kg i.v. Alternatively, test compounds may be administered orally or by subcutaneous or intraperitoneal routes. A skin incision is then made in the midline of the scalp to expose the skull.

[2] = tested on: guinea-pig pups; assay: Separation-induced vocalisation in guinea-pig pups; type: in vivo; details: for attenuation of separation-induced vocalisations compared with baseline: 30 minutes before isolation
Text: ASSAY 2: Separation-induced Vocalisation
Male and female guinea-pigs pups are housed in family groups with their mothers and littermates throughout the study. Experiments are commenced after weaning when the pups are at least 2 weeks old. Before entering an experiment, the pups may be screened to ensure that a vigorous vocalisation response is reproducibly elicited following maternal separation. The pups are placed individually in an observation cage (approximately 55 cm×39 cm×19 cm) in a room physically isolated from the home cage for approximately 15 minutes and the duration and/or number of vocalisation during this baseline period is recorded. […] The duration and/or number of vocalisation on drug treatment days may be expressed as a percentage of the pre-treatment baseline value for each animal or compared with values obtained in vehicle-treated animals. The same subjects may be retested once weekly for up to 6 weeks.

[3] = tested on: ferrets; assay: Ferret emesis (cisplatin-induced); type: in vivo; details: p.o., 60 minutes before cisplatin 10 mg/kg i.v.
Text: ASSAY 4: Ferret Emesis […]

Structure (SMILES): CN(C)CCCN1c2ccccc2CCc2ccccc21 [imipramine, reference compound]
- foot-tapping ID50 ([1]; s.c., foot-tapping induced by substance P): 3.8 mg/kg s.c.
- guinea-pig vocalisation ID50 ([2]; s.c.): 5.4 mg/kg s.c.

Structure (SMILES): CN1C(=O)CN=C(c2ccccc2)c2cc(Cl)ccc21 [diazepam, reference compound]
- guinea-pig vocalisation ID50 ([2]; s.c.): 0.7 mg/kg s.c.

Structure (SMILES): C[C@@H](O[C@@H]1OCCN(Cc2nn[nH]c2CN(C)C)[C@@H]1c1ccccc1)c1cc(C(F)(F)F)cc(C(F)(F)F)c1 [Test Compound B, 2-(S)-(1-(R)-(3,5-bis(trifluoromethyl)phenyl)ethoxy)-4-(5-(dimethylamino)methyl-1,2,3-triazol-4-yl)methyl-3-(R)-phenylmorpholine]
- attenuation of separation-induced vocalisations when administered alone ([2]; 0.25 mg/kg s.c. alone): failure
- potentiation of the inhibitory effect of buspirone on separation-induced vocalisations ([2]; 0.25 mg/kg s.c. with buspirone 0.25 mg/kg s.c.): failure
- potentiation of the inhibitory effect of fluoxetine on separation-induced vocalisations ([2]; 0.25 mg/kg s.c. with fluoxetine 2 mg/kg i.p.): failure

Structure (SMILES): C[C@@H](O[C@H]1OCCN(Cc2nn[nH]c2CN(C)C)[C@H]1c1ccccc1)c1cc(C(F)(F)F)cc(C(F)(F)F)c1 [Test Compound A, 2-(R)-(1-(R)-(3,5-bis(trifluoromethyl)phenyl)ethoxy)-4-(5-(dimethylamino)methyl-1,2,3-triazol-4-yl)methyl-3-(S)-phenylmorpholine]
- gerbil foot-tapping (5 mins.) ID50 [1]: ID50 = 0.12 mg/kg i.v.
- gerbil foot-tapping (24 hrs.) ID50 [1]: ID50 = 0.17 mg/kg i.v.
- attenuation of separation-induced vocalisations compared with baseline ([2]; 0.25 mg/kg s.c. alone): approximately 25%
- guinea-pig vocalisation ID50 ([2]; s.c.): ID50 = 0.5 mg/kg s.c.

Structure (SMILES): C[C@@H](O[C@H]1OCCN(Cc2n[nH]c(=O)[nH]2)[C@H]1c1ccc(F)cc1)c1cc(C(F)(F)F)cc(C(F)(F)F)c1 [2-(R)-(1-(R)-(3,5-bis(trifluoromethyl)phenyl)ethoxy)-3-(S)-(4-fluorophenyl)-4-(3-(5-oxo-1H,4H-1,2,4-triazolo)methyl)morpholine]
- ID90 in the ferret emesis assay [3]: < 3 mg/kg p.o.
- gerbil foot-tapping (5 mins.) ID50 [1]: ID50 = 0.36 mg/kg i.v.
- gerbil foot-tapping (24 hrs.) ID50 [1]: ID50 = 0.33 mg/kg i.v.
- guinea-pig vocalisation ID50 ([2]; p.o., 4 hrs. pretreatment): ID50 = 0.73 mg/kg p.o.

Structure (SMILES): CNCCC(Oc1ccc(C(F)(F)F)cc1)c1ccccc1 (stereo not drawn) [fluoxetine, reference compound]
- attenuation of separation-induced vocalisations compared with baseline ([2]; 2 mg/kg i.p. alone): approximately 25%
- guinea-pig vocalisation ID50 ([2]; i.p.): 2.7 mg/kg i.p.

Structure (SMILES): O=C1CC2(CCCC2)CC(=O)N1CCCCN1CCN(c2ncccn2)CC1 [buspirone, reference compound]
- attenuation of separation-induced vocalisations compared with baseline ([2]; 0.25 mg/kg s.c. alone): approximately 25%
- guinea-pig vocalisation ID50 ([2]; s.c.): 0.5 mg/kg s.c.
